Experimental data taken from patent US8263606B2 (Xenon Pharmaceuticals Inc., priority 2008, dated 2012).
Structures can show the parent of a compound that is named as a salt.

Experiments:
[1] = target: CYP3A4 (Homo sapiens, UniProt P08684); assay: Cytochrome P450 (CYP450) Inhibition Assay, CYP3A4 (Vivid fluorescence, BOMCC substrate); details: for inhibition at 10 µM: human, P450 Baculosomes (recombinant CYP3A4), probe BOMCC (Vivid substrate)
CYP3A4, sequence (P08684 whole entry): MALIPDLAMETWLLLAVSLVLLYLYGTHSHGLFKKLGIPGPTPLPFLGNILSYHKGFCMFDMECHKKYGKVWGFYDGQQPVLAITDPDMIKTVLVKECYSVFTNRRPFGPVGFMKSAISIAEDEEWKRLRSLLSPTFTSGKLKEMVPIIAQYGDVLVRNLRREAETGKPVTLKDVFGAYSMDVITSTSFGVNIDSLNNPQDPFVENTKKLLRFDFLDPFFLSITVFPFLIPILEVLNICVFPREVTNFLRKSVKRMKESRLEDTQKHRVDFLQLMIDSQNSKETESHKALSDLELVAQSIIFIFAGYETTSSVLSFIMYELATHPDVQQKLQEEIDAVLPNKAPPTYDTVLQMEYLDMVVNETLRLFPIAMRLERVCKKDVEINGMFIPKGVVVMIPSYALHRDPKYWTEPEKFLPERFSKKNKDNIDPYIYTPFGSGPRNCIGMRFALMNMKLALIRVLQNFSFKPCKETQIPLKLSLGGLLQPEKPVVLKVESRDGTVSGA

Compound	melting point	inhibition at 10 µM [1]	% Inhibition of CYP3A4 ([1]; CYP3A4 isozyme, at 10 μM)
O=C1N(Cc2cc3ccccc3o2)c2ccccc2C12COc1cc3c(cc12)OCO3 (stereo not shown) [Example 1.8, 1′-(1-benzofuran-2-ylmethyl)spiro[furo[2,3-f][1,3]-benzodioxole-7,3′-indol]-2′(1′H)-one]	167 to 168 °C	> 50%	–
O=C1N(C(c2ccccc2)c2ccccc2)c2ccc(F)cc2C12COc1cc3c(cc12)CCO3 (stereo not shown) [Example 2.4, 1′-(diphenylmethyl)-5′-fluoro-5,6-dihydrospiro[benzo[1,2-b:5,4-b′]difuran-3,3′-indol]-2′(1′H)-one]	228 to 229 °C	–	–
O=C1N(C(c2ccccc2)c2ccccc2)c2cc(F)ccc2C12COc1cc3c(cc12)CCO3 (stereo not shown) [Example 2.5, 1′-(diphenylmethyl)-6′-fluoro-5,6-dihydrospiro[benzo[1,2-b:5,4-b′]difuran-3,3′-indol]-2′(1′H)-one]	194 to 196 °C	–	–
O=C1N(C(c2ccccc2)c2ccccc2)c2ccccc2C12COc1cc3c(cc12)CCCO3 (stereo not shown) [Example 2.12, 1′-(diphenylmethyl)-6,7-dihydro-5H-spiro[furo[3,2-g]chromene-3,3′-indol]-2′(1′H)-one]	208 to 211 °C	–	–
O=C1N(C(c2ccccc2)c2ccccc2)c2ccccc2C12COc1cc3c(cc12)OCCCO3 (stereo not shown) [Example 2.13, 1′-(diphenylmethyl)-3,4-dihydro-2H-spiro[furo[2,3-h][1,5]benzodioxepine-9,3′-indol]-2′(1′H)-one]	165 to 168 °C	–	–
Cc1ccc(F)c2c1N(C(c1ccccc1)c1ccccc1)C(=O)C21COc2cc3c(cc21)CCO3 (stereo not shown) [Example 2.19, 1′-(diphenylmethyl)-4′-fluoro-7′-methyl-5,6-dihydrospiro[benzo[1,2-b:5,4-b′]difuran-3,3′-indol]-2′(1′H)-one]	81 to 82 °C	–	–
O=C1N(C(c2ccccc2)c2ccccc2)c2c(F)cccc2C12COc1cc3c(cc12)CCO3 (stereo not shown) [Example 2.20, 1′-(diphenylmethyl)-7′-fluoro-5,6-dihydrospiro[benzo[1,2-b:5,4-b′]difuran-3,3′-indol]-2′(1′H)-one]	183 to 184 °C	–	–
CN1C(=O)C2(COc3cc4c(cc32)OCCO4)c2c(C(=O)Oc3ccccc3)cccc21 (stereo not shown) [Example 2.53, phenyl 1′-methyl-2′-oxo-1′,2,2′,3-tetrahydrospiro[furo[2,3-g][1,4]benzodioxine-8,3′-indole]-4′-carboxylate]	184 to 186 °C	> 50%	–
O=C1Nc2ccccc2C12COc1ccc3c(c12)OCCO3 (stereo not shown) [Example 3.43, 2,3-dihydrospiro[furo[3,2-f][1,4]benzodioxine-9,3′-indol]-2′(1′H)-one]	259 to 261 °C	–	–
O=C1N(Cc2ccc(Br)cc2)c2ccccc2C12COc1cc3c(cc12)OCO3 (stereo not shown) [Example 4.1, 1′-(4-bromobenzyl)spiro[furo[2,3-f][1,3]benzodioxole-7,3′-indol]-2′(1′H)-one]	148 to 150 °C	–	–
C[n+]1c(Cl)c[nH]c1CN1C(=O)C2(COc3cc4c(cc32)OCCO4)c2ccccc21 (stereo not shown) [Example 4.39, 1′-[(5-chloro-1-methyl-1H-imidazol-2-yl)methyl]-2,3-dihydrospiro[furo[2,3-g][1,4]benzodioxine-8,3′-indol]-2′(1′H)-one]	91 to 95 °C	–	–
Cl.O=C1N(Cc2ccccn2)c2ccccc2C12COc1cc3c(cc12)OCCO3 (stereo not shown) [Example 4.42, 1′-(pyridin-2-ylmethyl)-2,3-dihydrospiro[furo[2,3-g][1,4]benzodioxine-8,3′-indol]-2′(1′H)-one hydrochloride]	206 to 208 °C	–	A (percent inhibition of less than 50% at 10 μM)
Cc1ccc2c(c1)C1(COc3cc4c(cc31)OCCO4)C(=O)N2Cc1ncccc1C(F)(F)F (stereo not shown) [Example 4.115, 5′-methyl-1′-{[3-(trifluoromethyl)pyridin-2-yl]methyl}-2,3-dihydrospiro[furo[2,3-g][1,4]benzodioxine-8,3′-indol]-2′(1′H)-one]	137 to 139 °C	–	–
O=C1N(Cc2cccc(C(F)(F)F)n2)c2ccccc2C12COc1cc3c(cc12)OCCO3 (stereo not shown) [Example 5.9, 1′-{[6-(trifluoromethyl)pyridin-2-yl]methyl}-2,3-dihydrospiro[furo[2,3-g][1,4]benzodioxine-8,3′-indol]-2′(1′H)-one]	195 to 196 °C	> 50%	–
O=C1N(Cc2cccnc2C(F)(F)F)c2ccccc2C12COc1cc3c(cc12)OCCO3 (stereo not shown) [Example 5.10, 1′-{[2-(trifluoromethyl)pyridin-3-yl]methyl}-2,3-dihydrospiro[furo[2,3-g][1,4]benzodioxine-8,3′-indol]-2′(1′H)-one]	219 to 220 °C	< 50%	–
O=C1N(Cc2nccnc2C(F)(F)F)c2ccccc2C12COc1cc3c(cc12)OCCO3 (stereo not shown) [Example 5.11, 1′-{[3-(trifluoromethyl)pyrazin-2-yl]methyl}-2,3-dihydrospiro[furo[2,3-g][1,4]benzodioxine-8,3′-indol]-2′(1′H)-one]	230 to 232 °C	< 50%	–
O=C1N(Cc2cnccc2C(F)(F)F)c2ccccc2C12COc1cc3c(cc12)OCCO3 (stereo not shown) [Example 5.12, 1′-{[4-(trifluoromethyl)pyridin-3-yl]methyl}-2,3-dihydrospiro[furo[2,3-g][1,4]benzodioxine-8,3′-indol]-2′(1′H)-one]	131 to 132 °C	> 50%	–
COc1ncc(CN2C(=O)C3(COc4cc5c(cc43)OCCO5)c3ccccc32)cn1 (stereo not shown) [Example 5.14, 1′-[(2-methoxypyrimidin-5-yl)methyl]-2,3-dihydrospiro[furo[2,3-g][1,4]benzodioxine-8,3′-indol]-2′(1′H)-one]	248 to 249 °C	< 50%	–
N#CCN1C(=O)C2(COc3cc4c(cc32)OCCO4)c2ccccc21 (stereo not shown) [Example 5.24, (2′-oxo-2,3-dihydrospiro[furo[2,3-g][1,4]benzodioxine-8,3′-indol]-1′(2′H)-yl)acetonitrile]	161 to 162 °C	–	–
COc1ccc(CN2C(=O)C3(COc4cc5c(cc43)OCO5)c3ccccc32)cc1 (stereo not shown) [Example 7, 1′-(4-methoxybenzyl)spiro[furo[2,3-f][1,3]benzodioxole-7,3′-indol]-2′(1′H)-one]	147 to 148 °C	–	–

The next lines start with results.

melting point	inhibition at 10 µM [1]	Compound	% Inhibition of CYP3A4 ([1]; CYP3A4 isozyme, at 10 μM)
162 to 164 °C	–	CN1CCC(CN2C(=O)C3(COc4cc(F)c(F)cc43)c3ccccc32)CC1 (stereo not shown) (as salt: hydrochloride) [Example 11.112, 5,6-difluoro-1′-[(1-methylpiperidin-4-yl)methyl]spiro[1-benzofuran-3,3′-indol]-2′(1′H)-one hydrochloride]	–
191 to 195 °C	–	Cc1noc2cc3c(cc12)C1(CO3)C(=O)N(Cc2ccc(-c3cc(N)n[nH]3)cc2)c2ccccc21 (stereo not shown) (as salt: hydrochloride) [Example 29.1, 1′-[4-(3-amino-1H-pyrazol-5-yl)benzyl]-3-methylspiro[furo[3,2-f][1,2]benzisoxazole-5,3′-indol]-2′(1′H)-one hydrochloride]	–
198 to 201 °C	–	Nc1cc(-c2ccc(CN3C(=O)C4(COc5cc6c(cc54)OCCO6)c4ccccc43)cc2)[nH]n1 (stereo not shown) (as salt: hydrochloride) [Example 29.2, 1′-[4-(3-amino-1H-pyrazol-5-yl)benzyl]-2,3-dihydrospiro[furo[2,3-g][1,4]benzodioxine-8,3′-indol]-2′(1′H)-one hydrochloride]	–
153 to 162 °C	–	O=C1N(Cc2ccc(N[C@@H]3CCNC3)cc2)c2ccccc2C12COc1cc(F)c(F)cc12 (stereo partly drawn) (as salt: hydrochloride) [Example 33.2, 5,6-difluoro-1′-{4-[(3R)-pyrrolidin-3-ylamino]benzyl}spiro[1-benzofuran-3,3′-indol]-2′(1′H)-one hydrochloride]	–
111 to 113 °C	–	CCCCCN1C(=O)[C@@]2(COc3cc4c(cc32)OCCO4)c2ccccc21 [Example 7.3, (S)-1-pentyl-2,3-dihydrospiro[furo[2,3-g][1,4]benzodioxine-8,3′-indol]-2′(1′H)-one]	–
83 to 86 °C	–	O=C1N(C[C@@H]2CCCN2)c2ccccc2C12COc1cc3c(cc12)CCO3 (stereo partly drawn) [Example 11.11, 1′-[(2S)-pyrrolidin-2-ylmethyl]-5,6-dihydrospiro[benzo[1,2-b:5,4-b′]difuran-3,3′-indol]-2′(1′H)-one]	–
107 to 115 °C	–	CC(C)NC(=O)N1CCC(CN2C(=O)C3(COc4cc5c(cc43)CCO5)c3ccccc32)C1 (stereo not shown) [Example 11.62, N-(1-methylethyl)-3-[(2′-oxo-5,6-dihydrospiro[benzo[1,2-b:5,4-b′]difuran-3,3′-indol]-1′(2′H)-yl)methyl]pyrrolidine-1-carboxamide]	–
193 to 196 °C	–	O=C(O)CN1C(=O)C2(COc3cc4c(cc32)OCCO4)c2ccccc21 (stereo not shown) [Example 11.76, (2′-oxo-2,3-dihydrospiro[furo[2,3-g][1,4]benzodioxine-8,3′-indol]-1′(2′H)-yl)acetic acid]	–
87 to 89 °C	–	Cc1noc2cc3c(cc12)C1(CO3)C(=O)N(Cc2nc(C(=O)N(C)C)co2)c2ccccc21 (stereo not shown) [Example 13.9, N,N-dimethyl-2-[(3-methyl-2′-oxospiro[furo[3,2-f][1,2]benzisoxazole-5,3′-indol]-1′(2′H)-yl)methyl]-1,3-oxazole-4-carboxamide]	–
127 to 128 °C	–	CN1C(=O)C2(COc3cc4c(cc32)OCCO4)c2c(C(=O)NC3CC3)cccc21 (stereo not shown) [Example 16.40, N-cyclopropyl-1′-methyl-2′-oxo-1′,2,2′,3-tetrahydrospiro[furo[2,3-g][1,4]benzodioxine-8,3′-indole]-4′-carboxamide]	–
> 250 °C	–	CN1C(=O)C2(COc3cc4c(cc32)OCCO4)c2c(C(N)=O)cccc21 (stereo not shown) [Example 16.72, 1′-methyl-2′-oxo-1′,2,2′,3-tetrahydrospiro[furo[2,3-g][1,4]benzodioxine-8,3′-indole]-4′-carboxamide]	–
120 to 122 °C	–	CNC(=O)c1cccc2c1C1(COc3cc4c(cc31)OCCO4)C(=O)N2C (stereo not shown) [Example 16.76, N,1′-dimethyl-2′-oxo-1′,2,2′,3-tetrahydrospiro[furo[2,3-g][1,4]benzodioxine-8,3′-indole]-4′-carboxamide]	–
